Source: patent US20260117174A1, “PRODUCTION METHOD OF THREE-DIMENSIONAL CELL CULTURE, CULTURE METHOD OF THREE-DIMENSIONAL CELL CULTURE, THREE-DIMENSIONAL CELL CULTURE, AND EVALUATION METHOD OF TEST SUBSTANCE” (FUJIFILM Corporation, priority 2023, published 2026)

Tested on: three-dimensional co-culture of astrocytes, neurons and microglia
Test: Intercellular interactions during neuroinflammation: NF-κB p65 immunostaining of the three-dimensional co-culture after LPS treatment
Type: cell-based, human
Settings: 100 ng/ml final concentration; fixed 0, 0.5, 1, 3, 6 and 24 hours after treatment; co-culture cultured for 3 weeks
Protocol: • The three-dimensional co-culture that had been cultured for 3 weeks was treated with Lipopolysaccharide (LPS) from E. coli 0127 (FUJIFILM Wako Pure Chemical Corporation, 124-05151) such that the final concentration was 100 ng/ml, and fixed by treating, for 30 minutes, with a 4% paraformaldehyde-phosphate buffer solution (FUJIFILM Wako Pure Chemical Corporation, 161-20141) at 0, 0.5, 1, 3, 6, and 24 hours after the treatment. After washing with PBS(-), the co-culture was treated with Triton (registered trademark) X-100 solution (BioVision, 2104-100) diluted to 0.4% with PBS(-) for 15 minutes to perform permeation treatment. After the permeation treatment, the co-culture was treated with a BSA solution (Sigma-Aldrich, A416) adjusted at a concentration of 4% with PBS(-) for 30 minutes to perform blocking. […] After washing with PBS(-), imaging was performed with a confocal quantitative image cytometer CQ1 (Yokogawa Electric Corporation, Cell Voyager (registered trademark) CQ1) to acquire images.

With Lipopolysaccharide [LPS] the “nuclear localization of NF-κB after the LPS treatment” value was “change in nuclear localization of NF-κB”.
